“And” between values parts separate entries of the source, which are not always exact repeats. Identical values can stand only once. Like-named read-outs stand apart in the source and are kept apart here.

Series [1] deals with Permethrin Susceptible A. aegypti. The series can be described thus: Wind tunnel bioassay, adult mosquitoes (Example 1). The format is in vivo. As to the method:
(§1) In this bioassay, a wind tunnel bioassay was performed in New Mexico in July 2017. Aedes aegypti that were known to be resistant (single knockdown resistance (“KDR”) mutation) and susceptible to permethrin were used in the studies. The following solutions were applied to adult A. aegypti mosquitoes: 1) 1.5% abamectin; 2) 1.5% ivermectin; 3) 2% fenpropathrin; 4) a mixture of 2% fenpropathrin and 1.5% abamectin; 5) a mixture of 2% fenpropathrin and 1.5% abamectin; 6) a mixture of 2% fenpropathrin and 1.5% ivermectin; and 7) a mixture of 2% fenpropathrin and 1.5% ivermectin.
(§2) To determine if the mixtures provided unexpected results, the observed combined efficacy (“OCE”) was divided by the expected combined efficacy (“ECE”) wherein the expected ECE is calculated by the Abbott method: ECE=A+B−(AB/100), wherein ECE is the expected combined efficacy and in which A and B are the percent control given by the single active ingredients. If the ratio between the OCE of the mixture and the ECE of the mixture is greater than 1, then greater than expected interactions are present in the mixture. (Gisi, Synergistic Interaction of Fungicides in Mixtures, The American Phytopathological Society, 86:11, 1273-1279, 1996).

Series [2] has as its system Permethrin Resistant C. quinquefasciatus. The format is in vivo. On the procedure: (§3) If the ratio between the OCE of the mixture and the ECE of the mixture is greater than 1, then greater than expected interactions are present in the mixture. (Gisi, Synergistic Interaction of Fungicides in Mixtures, The American Phytopathological Society, 86:11, 1273-1279, 1996).
(§4) In this bioassay, a wind tunnel bioassay was performed in New Mexico in March 2020. C. quinquefasciatus that were known to be resistant and susceptible to permethrin were used in the studies. The following solutions were applied to adult C. quinquefasciatus mosquitoes: 1) 1.5% abamectin; 2) 1.5% ivermectin; 3) 5% pyrethrum; 4) a mixture of 5% pyrethrum and 1.5% abamectin; and 5) a mixture of 5% pyrethrum and 1.5% ivermectin. Percent mortality was recorded at 15 minutes, 1 hour, 24 hours and 48 hours.

Series [3] has as its system Permethrin Resistant A. aegypti (single KDR mutation). The class given is in vivo, Aedes aegypti. On the procedure: as §1, §2
Series [4] relates to Permethrin Susceptible C. quinquefasciatus. The series can be described thus: Wind tunnel bioassay, adult mosquitoes (Example 5). The class given is in vivo. As to the method: as §3, §4
The subject of series [5] is Permethrin Resistant C. quinquefasciatus. The series can be described thus: Wind tunnel bioassay, adult mosquitoes (Example 4). The class given is in vivo, Culex quinquefasciatus. As to the method: In this bioassay, a wind tunnel bioassay was performed in New Mexico in March 2020. C. quinquefasciatus that were known to be resistant and susceptible to permethrin were used in the studies. The following solutions were applied to adult C. quinquefasciatus mosquitoes: 1) 5% permethrin; 2) a mixture of 5% permethrin and, 1.5% abamectin; 3) a mixture of 5% permethrin, 1.5% abamectin and 1% C8, 9, 10 fatty acids; 4) a mixture of 5% permethrin and 1.5% ivermectin; and 5) a mixture of 5% permethrin, 1.5% ivermectin and 1% C8, 9, 10 fatty acids. Percent mortality was recorded at 15 minutes, 1 hour, 24 hours and 48 hours.

Series [6] concerns Permethrin Susceptible C. quinquefasciatus. In words: Wind tunnel bioassay, adult mosquitoes (Example 4). The format is in vivo, Culex quinquefasciatus. As to the method: In this bioassay, a wind tunnel bioassay was performed in New Mexico in March 2020. C. quinquefasciatus that were known to be resistant and susceptible to permethrin were used in the studies. […] Percent mortality was recorded at 15 minutes, 1 hour, 24 hours and 48 hours.

On to abamectin [1.5% abamectin], for which the “% Mortality” value in series [1] was 100%; in series [2] (Example 5, 1 Hr) it was 26.3%; in series [2] (Example 5, 15 Min), 0%; in series [2] (Example 5, 24 Hr), 78.8%; in series [2] (Example 5, 48 Hr), 80%; in series [3], 91% and 91.3%. In addition, the “% Mortality” value in series [4] (1 Hr) was 73.8%; in series [4] (15 Min), 15%; in series [4] (24 Hr), 91.3%; in series [4] (48 Hr), 92.5%.
Turning to `CC1(C)C(C(=O)OC(C#N)c2cccc(Oc3ccccc3)c2)C1(C)C` (stereo not drawn) [2.0% fenpropathrin, fenpropathrin], the “% Mortality” value was 99.6% in series [1]; 76% and 75.8% in series [3].
Consider `CC1(C)C(C=C(Cl)Cl)C1C(=O)OCc1cccc(Oc2ccccc2)c1` (stereo not drawn) [5% permethrin, permethrin], for which the “% Mortality” value is recorded as 78.8% in series [5] (1 Hr); 0% in series [5] (15 Min); 65% in series [5] (24 Hr); 66.3% in series [5] (48 Hr); 100% in series [6] (1 Hr); 65% in series [6] (15 Min). In addition, the “% Mortality” value in series [6] (24 Hr) and in series [6] (48 Hr) was 100% throughout.
Take ivermectin [1.5% ivermectin]: the “% Mortality” value in series [1] was 100%; in series [2] (Example 5, 1 Hr), 42.5%; in series [2] (Example 5, 15 Min) it was 0%; in series [2] (Example 5, 24 Hr) it was 88.8%; in series [2] (Example 5, 48 Hr), 91.3%; in series [3] it was 64% and 62.9%. Further, the “% Mortality” value in series [4] (1 Hr) turned out to be 62.5%; in series [4] (15 Min), 5%; in series [4] (24 Hr), 100%; in series [4] (48 Hr) it was 100%.

For the origin of these results see patent US11985976B2, “Mixture of mectins and pyrethroids and uses thereof” (Valent BioSciences LLC, priority 2020, dated 2024).
